Test results reported in US20020137929A1, “1 - (3-heterocyclylphenyl) isothiourea, -isourea, -guanidine and -amidine herbicidal agents” (Intellectual Property Department, BASF Aktiengesellschaft, priority 1998, published 2002).

Experiments:
CASOB (Sicklepod) = assay: Postemergence herbicidal evaluation; type: in vivo, Cassia obtusifolia; details: postemergence
How it was run: (§1)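 Each compound, dispersed in an acetone/water mix (50/50) carrying 0.5% TWEEN 20, is nozzle-sprayed at 40 psi on approximately two-week-old seedlings at about 0.0156–0.500 kg/ha. Plants are assessed 4–5 weeks afterward on a 0–9 scale relative to control; duplicate tests are averaged.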

GALAP (Galium) = assay: Postemergence herbicidal evaluation; type: in vivo, Galium aparine; details: postemergence
How it was run: as §1

ZEAMX (Corn, Field) [1] = assay: Postemergence herbicidal evaluation; type: in vivo, Zea mays; details: postemergence
How it was run: as §1

AMBEL (Ragweed, Common) = assay: Preemergence herbicidal evaluation; type: in vivo, Ambrosia artemisifolia; details: rated 4-5 weeks after treatment
How it was run: (§2)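 Steps: mix seeds into potting soil; plant atop ~1 inch soil; spray compound in aqueous acetone (~0.0156-0.500 kg/ha equivalent); maintain in greenhouse with watering; rate visually 0-9 versus control at 4-5 weeks.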

[2] = system: CHEAL (Lambsquarters, Common); assay: Preemergence herbicidal evaluation; type: in vivo, Chenopodium album; details: rated 4-5 weeks after treatment
How it was run: as §2

[3] = system: IPOHE (Morningglory, Ivyleaf); assay: Preemergence herbicidal evaluation; type: in vivo, Ipomoea hederacea; details: rated 4-5 weeks after treatment
How it was run: as §2

ORYSAT (Rice, Tebonnet) = assay: Preemergence herbicidal evaluation; type: in vivo, Oryza sativa, (L.) Tebonnet; details: rated 4-5 weeks after treatment
How it was run: as §2

[4] = system: TRZAWR (Wheat, Winter, cv Riband); assay: Preemergence herbicidal evaluation; type: in vivo, Triticum aestivum; details: rated 4-5 weeks after treatment
How it was run: as §2

ZEAMX (Corn, Field) [5] = assay: Preemergence herbicidal evaluation; type: in vivo, Zea mays; details: rated 4-5 weeks after treatment
How it was run: as §2

[6] = system: ECHORC (Watergrass (Calif.)); assay: Preemergence weed control under flooded paddy conditions; type: in vivo, Echinochloa oryzoides; details: rated 3-4 weeks after treatment
How it was run: (§3)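 First, seeds or propagules go into the top 0.5 cm of silt loam; next, water is held 1.5 to 3 cm over the soil; then compound (50/50 acetone/water) is pipetted into it at about 0.0313 to 0.500 kg/ha; finally plants are rated visually 0-9 after three to four weeks.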

CYPIR (Rice Flatsedge) = assay: as above; type: in vivo, Cyperus iria; details: rated 3-4 weeks after treatment
How it was run: as §3

CYPSE (Flatsedge) [7] = assay: as above; type: in vivo, Cyperus serotinus; details: rated 3-4 weeks after treatment
How it was run: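 Seeds or propagules sown in silt loam kept flooded 1.5-3 cm; compounds in 50/50 acetone/water pipetted into flood water at about 0.0313 to 0.500 kg/ha. Greenhouse; visual 0-9 rating versus untreated control 3-4 weeks after treatment.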

[8] = system: ECHORC (Watergrass (Calif.)); assay: Postemergence weed control under flooded paddy conditions; type: in vivo, Echinochloa oryzoides; details: postemergence weeds, 3-4 weeks after treatment
How it was run: (§4)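 Flood-water application, about 0.0313–0.500 kg/ha a.i. in aqueous/acetone 50/50 v/v; water depth 1.5–3 cm throughout. Weeds 3–5 cm, rice 1.5–2.5 leaf. Greenhouse; 0–9 visual rating vs control at 3–4 wk.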

CYPSE (Flatsedge) [9] = assay: as above; type: in vivo, Cyperus serotinus; details: postemergence weeds, 3-4 weeks after treatment
How it was run: as §4

CCOC(=O)CN1C(=O)CSC1=Nc1cc(-n2c(=O)cc(C(F)(F)F)n(C)c2=O)c(F)cc1Cl [Compound 8, Ethyl 2-{{2-chloro-5-[3,6-dihydro-3-methyl-2,6-dioxo-4-(trifluoromethyl)-1(2H)pyrimidinyl]-4-fluorophenyl}imino}-4-oxo-3-thiazolidineacetate]
CASOB herbicidal rating (CASOB (Sicklepod); rate 0.0157 kg/ha): 0.0
CASOB herbicidal rating (CASOB (Sicklepod); rate 0.0313 kg/ha): 1.8
CASOB herbicidal rating (CASOB (Sicklepod); rate 0.0625 kg/ha): 3.0
CASOB herbicidal rating (CASOB (Sicklepod); rate 0.1250 kg/ha): 3.0
GALAP herbicidal rating (GALAP (Galium); rate 0.0157 kg/ha): 3.0
GALAP herbicidal rating (GALAP (Galium); rate 0.0313 kg/ha): 4.5
GALAP herbicidal rating (GALAP (Galium); rate 0.0625 kg/ha): 6.3
GALAP herbicidal rating (GALAP (Galium); rate 0.1250 kg/ha): 6.8
ZEAMX herbicidal rating (ZEAMX (Corn, Field) [1]; rate 0.0157 kg/ha): 7.5
ZEAMX herbicidal rating (ZEAMX (Corn, Field) [1]; rate 0.0313 kg/ha): 7.3
ZEAMX herbicidal rating (ZEAMX (Corn, Field) [1]; rate 0.0625 kg/ha): 7.4
ZEAMX herbicidal rating (ZEAMX (Corn, Field) [1]; rate 0.1250 kg/ha): 7.6
AMBEL preemergence herbicidal rating (AMBEL (Ragweed, Common); rate 0.0156 kg/ha): 1.6
AMBEL preemergence herbicidal rating (AMBEL (Ragweed, Common); rate 0.0313 kg/ha): 4.5
AMBEL preemergence herbicidal rating (AMBEL (Ragweed, Common); rate 0.0625 kg/ha): 5.7
AMBEL preemergence herbicidal rating (AMBEL (Ragweed, Common); rate 0.1250 kg/ha): 8.5
AMBEL preemergence herbicidal rating (AMBEL (Ragweed, Common); rate 0.2500 kg/ha): 8.9
AMBEL preemergence herbicidal rating (AMBEL (Ragweed, Common); rate 0.5000 kg/ha): 9.0
CHEAL preemergence herbicidal rating ([2]; rate 0.0156 kg/ha): 9.0
CHEAL preemergence herbicidal rating ([2]; rate 0.0313 kg/ha): 9.0
CHEAL preemergence herbicidal rating ([2]; rate 0.0625 kg/ha): 9.0
CHEAL preemergence herbicidal rating ([2]; rate 0.1250 kg/ha): 9.0
CHEAL preemergence herbicidal rating ([2]; rate 0.2500 kg/ha): 9.0
CHEAL preemergence herbicidal rating ([2]; rate 0.5000 kg/ha): 9.0
IPOHE preemergence herbicidal rating ([3]; rate 0.0156 kg/ha): 1.1
IPOHE preemergence herbicidal rating ([3]; rate 0.0313 kg/ha): 4.4
IPOHE preemergence herbicidal rating ([3]; rate 0.0625 kg/ha): 6.4
IPOHE preemergence herbicidal rating ([3]; rate 0.1250 kg/ha): 8.6
IPOHE preemergence herbicidal rating ([3]; rate 0.2500 kg/ha): 8.6
IPOHE preemergence herbicidal rating ([3]; rate 0.5000 kg/ha): 9.0
ORYSAT preemergence herbicidal rating (ORYSAT (Rice, Tebonnet); rate 0.0156 kg/ha): 0.6
ORYSAT preemergence herbicidal rating (ORYSAT (Rice, Tebonnet); rate 0.0313 kg/ha): 0.8
ORYSAT preemergence herbicidal rating (ORYSAT (Rice, Tebonnet); rate 0.0625 kg/ha): 2.8
ORYSAT preemergence herbicidal rating (ORYSAT (Rice, Tebonnet); rate 0.1250 kg/ha): 5.4
ORYSAT preemergence herbicidal rating (ORYSAT (Rice, Tebonnet); rate 0.2500 kg/ha): 7.1
ORYSAT preemergence herbicidal rating (ORYSAT (Rice, Tebonnet); rate 0.5000 kg/ha): 8.5
TRZAWR preemergence herbicidal rating ([4]; rate 0.0156 kg/ha): 0.2
TRZAWR preemergence herbicidal rating ([4]; rate 0.0313 kg/ha): 0.8
TRZAWR preemergence herbicidal rating ([4]; rate 0.0625 kg/ha): 2.8
TRZAWR preemergence herbicidal rating ([4]; rate 0.1250 kg/ha): 5.5
TRZAWR preemergence herbicidal rating ([4]; rate 0.2500 kg/ha): 7.2
TRZAWR preemergence herbicidal rating ([4]; rate 0.5000 kg/ha): 7.8
ZEAMX preemergence herbicidal rating (ZEAMX (Corn, Field) [5]; rate 0.0156 kg/ha): 2.2
ZEAMX preemergence herbicidal rating (ZEAMX (Corn, Field) [5]; rate 0.0313 kg/ha): 4.9
ZEAMX preemergence herbicidal rating (ZEAMX (Corn, Field) [5]; rate 0.0625 kg/ha): 6.4
ZEAMX preemergence herbicidal rating (ZEAMX (Corn, Field) [5]; rate 0.1250 kg/ha): 7.4
ZEAMX preemergence herbicidal rating (ZEAMX (Corn, Field) [5]; rate 0.2500 kg/ha): 7.9
ZEAMX preemergence herbicidal rating (ZEAMX (Corn, Field) [5]; rate 0.5000 kg/ha): 8.3
Herbicidal rating ECHORC ([6]; 0.0313 kg/ha): 6.5
Herbicidal rating ECHORC ([6]; 0.0625 kg/ha): 6.5
Herbicidal rating ECHORC ([6]; 0.1250 kg/ha): 7.5
Herbicidal rating ECHORC ([6]; 0.2500 kg/ha): 8.5
Herbicidal rating CYPIR (CYPIR (Rice Flatsedge); 0.0313 kg/ha): 0.0
Herbicidal rating CYPIR (CYPIR (Rice Flatsedge); 0.0625 kg/ha): 0.0
Herbicidal rating CYPIR (CYPIR (Rice Flatsedge); 0.1250 kg/ha): 0.0
Herbicidal rating CYPIR (CYPIR (Rice Flatsedge); 0.2500 kg/ha): 4.0
Herbicidal rating CYPSE (CYPSE (Flatsedge) [7]; 0.0313 kg/ha): 0.0
Herbicidal rating CYPSE (CYPSE (Flatsedge) [7]; 0.0625 kg/ha): 0.0
Herbicidal rating CYPSE (CYPSE (Flatsedge) [7]; 0.1250 kg/ha): 0.0
Herbicidal rating CYPSE (CYPSE (Flatsedge) [7]; 0.2500 kg/ha): 0.0
Herbicidal rating ECHORC ([8]; rate 0.0313 kg/ha): 6.5
Herbicidal rating ECHORC ([8]; rate 0.0625 kg/ha): 6.5
Herbicidal rating ECHORC ([8]; rate 0.1250 kg/ha): 7.5
Herbicidal rating ECHORC ([8]; rate 0.2500 kg/ha): 8.5
Herbicidal rating CYPSE (CYPSE (Flatsedge) [9]; rate 0.0313 kg/ha): 0.0
Herbicidal rating CYPSE (CYPSE (Flatsedge) [9]; rate 0.0625 kg/ha): 0.0
Herbicidal rating CYPSE (CYPSE (Flatsedge) [9]; rate 0.1250 kg/ha): 0.0
Herbicidal rating CYPSE (CYPSE (Flatsedge) [9]; rate 0.2500 kg/ha): 0.0
